# Experimental data reported in PubChem BioAssay AID1963844 (Molecular Pharmacology Branch, DTP, NCI, 2024).
# Test system: 422866-222-R5-J1-PDC complex spheroid viability
# Test: Anticancer human tumor 422866-222-R5-J1-PDC patient-derived pancreatic adenocarcinoma cell line growth inhibition [POLQ]
# Settings: for IC50: curve of first compound; for viability, T/C: stronger effect = lower value
# In short: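 PDC + HUVEC + MSC complex spheroids; POLQ inhibitors ± partner drugs; top conc. at/near clinical Cmax, else 10 microM (SN-38 1 microM), half-log dilutions; 37 degrees C, 5% CO2.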
# 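Note: spheroids exposed to compounds for one week before readout.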
# 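Throughout, for viability, T/C: percent of DMSO vehicle wells luminescence so 100% = untreated viability.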
smiles,measurement,setting,value
CCc1c2c(nc3ccc(O)cc13)-c1cc3c(c(=O)n1C2)COC(=O)[C@]3(O)CC + Cc1cccc(N(C)C(=O)C2C(O)CCN2c2nc(C)cc(C(F)(F)F)c2C#N)c1,IC50,second compound 0.0316 µM,< 3.16 nM
same,IC50,second compound 0.1 µM,< 3.16 nM
same,IC50,second compound 0.316 µM,< 3.16 nM
same,IC50,second compound 1 µM,< 3.16 nM
same,IC50,second compound 3.16 µM,< 3.16 nM
same,IC50,second compound 10 µM,< 3.16 nM
same,"viability, T/C","second compound 0.0316 µM, first compound 0.00316 µM",44.4%
same,"viability, T/C","second compound 0.0316 µM, first compound 0.01 µM",37.4%
same,"viability, T/C","second compound 0.0316 µM, first compound 0.0316 µM",38.7%
same,"viability, T/C","second compound 0.0316 µM, first compound 0.1 µM",37.7%
same,"viability, T/C","second compound 0.0316 µM, first compound 0.316 µM",34.4%
same,"viability, T/C","second compound 0.0316 µM, first compound 1 µM",21.4%
same,"viability, T/C","second compound 0.1 µM, first compound 0.00316 µM",49.1%
same,"viability, T/C","second compound 0.1 µM, first compound 0.01 µM",34.3%
same,"viability, T/C","second compound 0.1 µM, first compound 0.0316 µM",38.9%
same,"viability, T/C","second compound 0.1 µM, first compound 0.1 µM",34.8%
same,"viability, T/C","second compound 0.1 µM, first compound 0.316 µM",34.2%
same,"viability, T/C","second compound 0.1 µM, first compound 1 µM",28.2%
same,"viability, T/C","second compound 0.316 µM, first compound 0.00316 µM",46.2%
same,"viability, T/C","second compound 0.316 µM, first compound 0.01 µM",40.4%
same,"viability, T/C","second compound 0.316 µM, first compound 0.0316 µM",37.3%
same,"viability, T/C","second compound 0.316 µM, first compound 0.1 µM",38.1%
same,"viability, T/C","second compound 0.316 µM, first compound 0.316 µM",34.6%
same,"viability, T/C","second compound 0.316 µM, first compound 1 µM",25%
same,"viability, T/C","second compound 1 µM, first compound 0.00316 µM",40.9%
same,"viability, T/C","second compound 1 µM, first compound 0.01 µM",45.4%
same,"viability, T/C","second compound 1 µM, first compound 0.0316 µM",34.4%
same,"viability, T/C","second compound 1 µM, first compound 0.1 µM",35.2%
same,"viability, T/C","second compound 1 µM, first compound 0.316 µM",40.6%
same,"viability, T/C","second compound 1 µM, first compound 1 µM",18.2%
same,"viability, T/C","second compound 3.16 µM, first compound 0.00316 µM",49.7%
same,"viability, T/C","second compound 3.16 µM, first compound 0.01 µM",38.3%
same,"viability, T/C","second compound 3.16 µM, first compound 0.0316 µM",35.1%
same,"viability, T/C","second compound 3.16 µM, first compound 0.1 µM",34.6%
same,"viability, T/C","second compound 3.16 µM, first compound 0.316 µM",39.3%
same,"viability, T/C","second compound 3.16 µM, first compound 1 µM",26.4%
same,"viability, T/C","second compound 10 µM, first compound 0.00316 µM",42.1%
same,"viability, T/C","second compound 10 µM, first compound 0.01 µM",40.1%
same,"viability, T/C","second compound 10 µM, first compound 0.0316 µM",42.2%
same,"viability, T/C","second compound 10 µM, first compound 0.1 µM",38%
same,"viability, T/C","second compound 10 µM, first compound 0.316 µM",44.2%
same,"viability, T/C","second compound 10 µM, first compound 1 µM",24.6%
CC(=O)O[C@H]1C(=O)[C@@]2(C)[C@H]([C@H](OC(=O)c3ccccc3)[C@]3(O)C[C@H](OC(=O)[C@H](O)[C@@H](NC(=O)c4ccccc4)c4ccccc4)C(C)=C1C3(C)C)[C@]1(OC(C)=O)CO[C@@H]1C[C@@H]2O + COC1C(OC(N)=O)C(O)C(Oc2ccc3c(O)c(NC(=O)c4ccc(O)c(CC=C(C)C)c4)c(=O)oc3c2C)OC1(C)C,IC50,second compound 0.0316 µM,> 3000 nM
same,IC50,second compound 0.1 µM,> 3000 nM
same,IC50,second compound 0.316 µM,> 3000 nM
same,IC50,second compound 1 µM,> 3000 nM
same,IC50,second compound 3.16 µM,> 3000 nM
same,IC50,second compound 10 µM,> 3000 nM
same,"viability, T/C","second compound 0.0316 µM, first compound 0.00949 µM",64.8%
same,"viability, T/C","second compound 0.0316 µM, first compound 0.03 µM",57.2%
same,"viability, T/C","second compound 0.0316 µM, first compound 0.0949 µM",61.5%
same,"viability, T/C","second compound 0.0316 µM, first compound 0.3 µM",59.5%
same,"viability, T/C","second compound 0.0316 µM, first compound 0.949 µM",64.7%
same,"viability, T/C","second compound 0.0316 µM, first compound 3 µM",80.4%
same,"viability, T/C","second compound 0.1 µM, first compound 0.00949 µM",71.6%
same,"viability, T/C","second compound 0.1 µM, first compound 0.03 µM",67.4%
same,"viability, T/C","second compound 0.1 µM, first compound 0.0949 µM",66%
same,"viability, T/C","second compound 0.1 µM, first compound 0.3 µM",67%
same,"viability, T/C","second compound 0.1 µM, first compound 0.949 µM",69.1%
same,"viability, T/C","second compound 0.1 µM, first compound 3 µM",78.8%
same,"viability, T/C","second compound 0.316 µM, first compound 0.00949 µM",67%
same,"viability, T/C","second compound 0.316 µM, first compound 0.03 µM",63.5%
same,"viability, T/C","second compound 0.316 µM, first compound 0.0949 µM",54.6%
same,"viability, T/C","second compound 0.316 µM, first compound 0.3 µM",65.1%
same,"viability, T/C","second compound 0.316 µM, first compound 0.949 µM",70.7%
same,"viability, T/C","second compound 0.316 µM, first compound 3 µM",84.5%
same,"viability, T/C","second compound 1 µM, first compound 0.00949 µM",62.1%
same,"viability, T/C","second compound 1 µM, first compound 0.03 µM",54.9%
same,"viability, T/C","second compound 1 µM, first compound 0.0949 µM",61.4%
same,"viability, T/C","second compound 1 µM, first compound 0.3 µM",56.3%
same,"viability, T/C","second compound 1 µM, first compound 0.949 µM",59.6%
same,"viability, T/C","second compound 1 µM, first compound 3 µM",81.1%
same,"viability, T/C","second compound 3.16 µM, first compound 0.00949 µM",66.8%
same,"viability, T/C","second compound 3.16 µM, first compound 0.03 µM",52.9%
same,"viability, T/C","second compound 3.16 µM, first compound 0.0949 µM",55.3%
same,"viability, T/C","second compound 3.16 µM, first compound 0.3 µM",54%
same,"viability, T/C","second compound 3.16 µM, first compound 0.949 µM",75%
same,"viability, T/C","second compound 3.16 µM, first compound 3 µM",86.7%
same,"viability, T/C","second compound 10 µM, first compound 0.00949 µM",63.7%
same,"viability, T/C","second compound 10 µM, first compound 0.03 µM",60.6%
same,"viability, T/C","second compound 10 µM, first compound 0.0949 µM",60.3%
same,"viability, T/C","second compound 10 µM, first compound 0.3 µM",61.5%
same,"viability, T/C","second compound 10 µM, first compound 0.949 µM",72%
same,"viability, T/C","second compound 10 µM, first compound 3 µM",91.9%
